Results: patent US9580390B2, “Indazole compounds as kinase inhibitors and method of treating cancer with same” (University Health Network, priority 2011, dated 2017)
pIC50: −log10 of the molar value. Read-outs that look alike come from different tables or passages of the source.

What was measured:
human TTK = molecular target: T1, human TTK (Homo sapiens, UniProt P33981); assay: TTK inhibition assay (indirect ELISA); format: biochemical; conditions: read-out: TTK IC50 Range
T1 construct: amino terminal GST fusion of full length human TTK; purchased Invitrogen
T1 sequence (P33981 1-857): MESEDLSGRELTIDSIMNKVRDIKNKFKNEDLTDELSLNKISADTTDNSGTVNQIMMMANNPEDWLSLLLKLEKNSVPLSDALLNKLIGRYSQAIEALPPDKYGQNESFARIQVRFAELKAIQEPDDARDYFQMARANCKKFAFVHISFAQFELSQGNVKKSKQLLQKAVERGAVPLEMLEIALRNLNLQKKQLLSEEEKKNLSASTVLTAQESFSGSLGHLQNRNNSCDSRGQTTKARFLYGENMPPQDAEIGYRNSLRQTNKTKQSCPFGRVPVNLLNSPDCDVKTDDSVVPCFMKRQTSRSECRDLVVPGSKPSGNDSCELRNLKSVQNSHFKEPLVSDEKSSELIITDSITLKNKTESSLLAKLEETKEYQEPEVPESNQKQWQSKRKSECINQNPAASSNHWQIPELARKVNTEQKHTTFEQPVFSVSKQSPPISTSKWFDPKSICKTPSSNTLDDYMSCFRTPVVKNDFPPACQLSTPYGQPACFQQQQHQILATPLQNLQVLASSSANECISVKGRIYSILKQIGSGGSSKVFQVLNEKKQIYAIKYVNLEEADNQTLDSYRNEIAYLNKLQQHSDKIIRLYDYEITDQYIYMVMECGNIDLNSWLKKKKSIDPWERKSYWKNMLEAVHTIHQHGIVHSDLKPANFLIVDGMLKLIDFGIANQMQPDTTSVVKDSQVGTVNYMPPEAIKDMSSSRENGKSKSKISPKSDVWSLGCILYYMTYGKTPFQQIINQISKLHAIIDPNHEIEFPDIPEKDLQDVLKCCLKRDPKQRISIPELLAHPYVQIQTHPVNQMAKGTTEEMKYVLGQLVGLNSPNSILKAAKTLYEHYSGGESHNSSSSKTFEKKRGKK

[1] = test system: ovarian cancer cells (PA-1); assay: Cancer cell line growth inhibition (SRB assay); format: cell-based; conditions: read-out: Cancer Cell Line GI50 Range PA-1
[2] = test system: colon cancer cells (HCT116); assay: Cancer cell line growth inhibition (SRB assay); format: cell-based; conditions: Homo sapiens, HCT-116, read-out: Cancer Cell Line GI50 Range HCT116
[3] = PA-1 ovarian cancer cells, SRB assay
[4] = HCT116 colon cancer cells, SRB assay

Question: How did the pIC50 (human TTK) turn out when CCN(C(=O)Nc1ccc2[nH]nc(-c3ccc(N4CCOCC4)cc3)c2c1)c1ccccc1 [Example A72, 1-ethyl-3-(3-(4-morpholinophenyl)-1H-indazol-5-yl)-1-phenylurea] was run?
Answer: < 6.30

Question: CN1CCN(c2ccc(-c3n[nH]c4ccc(NC(=O)C(c5ccsc5)N5CCCC5)cc34)cc2)C(=O)C1 (centres unmarked) [Example A94, N-(3-(4-(4-Methyl-2-oxopiperazin-1-yl)phenyl)-1H-indazol-5-yl)-2-(pyrrolidin-1-yl)-2-(thiophen-3-yl)acetamide] was tested. Which pIC50 (human TTK) did it give?
Answer: < 6.30

Question: For COc1cc(-c2n[nH]c3ccc(C(=O)NC(c4ccccn4)C4CC4)cc23)ccc1OC1CCN(C2COC2)CC1 (centres unmarked) [Example A195, N-(cyclopropyl(pyridin-2-yl)methyl)-3-(3-methoxy-4-((1-(oxetan-3-yl)piperidin-4-yl)oxy)phenyl)-1H-indazole-5-carboxamide], which GI50 [1, 3] is on record?
Answer: 100 to 500 nM

Question: And the GI50 [2, 4]?
Answer: 100 to 500 nM

Question: How did the GI50 [1, 3] turn out when O=C(N[C@@H](c1ccccn1)C1CC1)c1ccc2[nH]nc(-c3ccc(OC4CCN(C5COC5)CC4)cc3)c2c1 [Example A196, (R)-N-(cyclopropyl(pyridin-2-yl)methyl)-3-(4-((1-(oxetan-3-yl)piperidin-4-yl)oxy)phenyl)-1H-indazole-5-carboxamide] was run?
Answer: < 100 nM

Question: And the GI50 [2, 4]?
Answer: < 100 nM

Question: How did the GI50 [1, 3] turn out when CN1CCC(Oc2ccc(-c3n[nH]c4ccc(C(=O)NC(c5ccccc5Cl)C5CCCC5)cc34)cc2)CC1 (centres unmarked) [Example A199, N-((2-chlorophenyl)(cyclopentyl)methyl)-3-(4-((1-methylpiperidin-4-yl)oxy)phenyl)-1H-indazole-5-carboxamide] was run?
Answer: 100 to 500 nM

Question: And the GI50 [2, 4]?
Answer: 100 to 500 nM

Question: Which results are given for O=CN1CCC(Oc2ccc(-c3n[nH]c4ccc(C(=O)N[C@@H](c5ccccn5)C5CC5)cc34)cc2)CC1 [Example A203, (R)-N-(cyclopropyl(pyridin-2-yl)methyl)-3-(4-((1-formylpiperidin-4-yl)oxy)phenyl)-1H-indazole-5-carboxamide]?
Answer: GI50 [1, 3]: 100 to 500 nM; GI50 [2, 4]: 100 to 500 nM

Question: COc1cc(-c2n[nH]c3ccc(C(=O)NC(c4ccccc4)C4CC4)cc23)ccc1OC1CCN(C=O)CC1 (centres unmarked) [Example A205, N-(cyclopropyl(phenyl)methyl)-3-(4-((1-formylpiperidin-4-yl)oxy)-3-methoxyphenyl)-1H-indazole-5-carboxamide] was tested. Which GI50 [1, 3] did it give?
Answer: 100 to 500 nM

Question: What about the GI50 [2, 4] of the same compound?
Answer: 100 to 500 nM

Question: Which GI50 [1, 3] does the source give for COc1cc(-c2n[nH]c3ccc(C(=O)NC(c4ccccn4)C4CC4)cc23)ccc1OC1CCN(C=O)CC1 (centres unmarked) [Example A206, N-(cyclopropyl(pyridin-2-yl)methyl)-3-(4-((1-formylpiperidin-4-yl)oxy)-3-methoxyphenyl)-1H-indazole-5-carboxamide] here?
Answer: 100 to 500 nM

Question: And the GI50 [2, 4]?
Answer: 100 to 500 nM

Question: For CN1CCC(Oc2ccc(-c3n[nH]c4ccc(C(=O)NCC(c5ccccc5)C5CCCC5)cc34)cc2)CC1 (centres unmarked) [Example A207, N-(2-cyclopentyl-2-phenylethyl)-3-(4-((1-methylpiperidin-4-yl)oxy)phenyl)-1H-indazole-5-carboxamide], which GI50 [1, 3] is on record?
Answer: 100 to 500 nM

Question: And the GI50 [2, 4]?
Answer: 100 to 500 nM

Question: For O=C(NC(c1ccccn1)C1CC1)c1ccc2[nH]nc(-c3ccc(OC4CN(C5COC5)C4)cc3)c2c1 (centres unmarked) [Example A209, N-(cyclopropyl(pyridin-2-yl)methyl)-3-(4-((1-(oxetan-3-yl)azetidin-3-yl)oxy)phenyl)-1H-indazole-5-carboxamide], which GI50 [1, 3] is on record?
Answer: 100 to 500 nM

Question: And the GI50 [2, 4]?
Answer: 100 to 500 nM

Question: Which GI50 ([1]; Homo sapiens, PA-1) does the source give for O=CN1CCC(Oc2ccc(-c3n[nH]c4ccc(C(=O)N[C@@H](c5ncccc5Cl)C5CC5)cc34)cc2)CC1 [Example A211, (R)-N-((3-chloropyridin-2-yl)(cyclopropyl)methyl)-3-(4-((1-formylpiperidin-4-yl)oxy)phenyl)-1H-indazole-5-carboxamide] here?
Answer: 100 to 500 nM

Question: And the GI50 [2]?
Answer: 100 to 500 nM

Question: With C[C@@H]1C[C@H](Oc2ccc(-c3n[nH]c4ccc(C(=O)NCC5(N6CCOCC6)CCCC5)cc34)cc2)C[C@H](C)O1 [Example A430, (4-(((2R,4R,6S)-2,6-dimethyltetrahydro-2H-pyran-4-yl)oxy)phenyl)-N-((1-morpholinocyclopentyl)methyl)-1H-indazole-5-carboxamide] as the compound, how does the pIC50 (human TTK) read?
Answer: 6.30 to 7.00

Question: With O=C(NCC1(N2CCC(F)CC2)CCCCC1)c1ccc2[nH]nc(-c3ccc(N4CCOCC4)cc3)c2c1 [Example A456, N-((1-(4-fluoropiperidin-1-yl)cyclohexyl)methyl)-3-(4-morpholinophenyl)-1H-indazole-5-carboxamide] as the compound, how does the pIC50 (human TTK) read?
Answer: 6.30 to 7.00

Question: With O=C(NCC1(N2CCC(F)(F)CC2)CCCCC1)c1ccc2[nH]nc(-c3ccc(N4CCOCC4)cc3)c2c1 [Example A457, N-((1-(4,4-difluoropiperidin-1-yl)cyclohexyl)methyl)-3-(4-morpholinophenyl)-1H-indazole-5-carboxamide] as the compound, how does the pIC50 (human TTK) read?
Answer: 6.30 to 7.00

Question: C[C@@H]1CC(CNC(=O)c2ccc3[nH]nc(-c4ccc(OC5CCN(C)CC5)cc4)c3c2)(N2CCOCC2)C[C@H](C)O1 (stereo partly drawn) [Example A475, N-(((2R,6S)-2,6-dimethyl-4-morpholinotetrahydro-2H-pyran-4-yl)methyl)-3-(4-((1-methylpiperidin-4-yl)oxy)phenyl)-1H-indazole-5-carboxamide] was tested. Which pIC50 (human TTK) did it give?
Answer: 6.30 to 7.00

Question: With O=C(NCC1(N2CCOCC2)CCCC1)c1ccc2[nH]nc(-c3ccc(OC4CCOCC4)cc3)c2c1 [Example A477, N-((1-morpholinocyclopentyl)methyl)-3-(4-((tetrahydro-2H-pyran-4-yl)oxy)phenyl)-1H-indazole-5-carboxamide] as the compound, how does the pIC50 (human TTK) read?
Answer: 6.30 to 7.00

Question: CN1CCC(Oc2ccc(-c3n[nH]c4ccc(C(=O)NCC5(N6CCOCC6)CCC5)cc34)cc2)CC1 [Example A479, 3-(4-((1-methylpiperidin-4-yl)oxy)phenyl)-N-((1-morpholinocyclobutyl)methyl)-1H-indazole-5-carboxamide] was tested. Which pIC50 (human TTK) did it give?
Answer: 6.30 to 7.00

Question: How did the pIC50 (human TTK) turn out when CN1CCC(Oc2ccc(-c3n[nH]c4ccc(C(=O)NCC5(CN6CCOCC6)CC5)cc34)cc2)CC1 [Example A498, 3-(4-((1-methylpiperidin-4-yl)oxy)phenyl)-N-((1-(morpholinomethyl)cyclopropyl)methyl)-1H-indazole-5-carboxamide] was run?
Answer: 6.30 to 7.00

Question: O=C(NCC1(N2CCOCC2)CCCOC1)c1ccc2[nH]nc(-c3ccc(N4CCOCC4)cc3)c2c1 (centres unmarked) [Example A515, 3-(4-morpholinophenyl)-N-((3-morpholinotetrahydro-2H-pyran-3-yl)methyl)-1H-indazole-5-carboxamide] was tested. Which pIC50 (human TTK) did it give?
Answer: > 7.00

Question: With O=C(NCC1(N2CCOCC2)CCCOC1)c1ccc2[nH]nc(-c3ccc(N4[C@@H]5CC[C@H]4C[C@H](O)C5)cc3)c2c1 (stereo partly drawn) [Example A516, 3-(4-((1R,3S,5S)-3-hydroxy-8-azabicyclo[3.2.1]octan-8-yl)phenyl)-N-((3-morpholinotetrahydro-2H-pyran-3-yl)methyl)-1H-indazole-5-carboxamide] as the compound, how does the pIC50 (human TTK) read?
Answer: > 7.00

Question: How did the pIC50 (human TTK) turn out when O=C(NCC1(N2CCOCC2)CCCOC1)c1ccc2[nH]nc(-c3ccc(N4[C@@H]5CC[C@H]4COC5)cc3)c2c1 (stereo partly drawn) [Example A517, 3-(4-((1R,5S)-3-oxa-8-azabicyclo[3.2.1]octan-8-yl)phenyl)-N-((3-morpholinotetrahydro-2H-pyran-3-yl)methyl)-1H-indazole-5-carboxamide] was run?
Answer: > 7.00

Question: With CC(C)C[C@H](NC(=O)c1ccc2[nH]nc(-c3ccc(N4C5CCC4CC(O)C5)cc3)c2c1)c1ccccc1F (stereo partly drawn) [Example A518, N-((S)-1-(2-fluorophenyl)-3-methylbulyl)-3-(4-((1R,3S,5S)-3-hydroxy-8-azabicyclo[3.2.1]octan-8-yl)phenyl)-1H-indazole-5-carboxamide] as the compound, how does the pIC50 (human TTK) read?
Answer: > 7.00

Question: How did the pIC50 (human TTK) turn out when CC(C)C[C@H](NC(=O)c1ccc2[nH]nc(-c3ccc(N4[C@@H]5CC[C@H]4COC5)cc3)c2c1)c1ccccc1F [Example A519, 3-(4-((1R,5S)-3-oxa-8-azabicyclo[3.2.1]octan-8-yl)phenyl)-N-((S)-1-(2-fluorophenyl)-3-methylbutyl)-1H-indazole-5-carboxamide] was run?
Answer: > 7.00

Question: With CC(C)(C)C[C@H](NC(=O)c1ccc2[nH]nc(-c3ccc(N4CC(N5CCOCC5)C4)cc3)c2c1)c1ccccc1 [Example A520, (S)-N-(3,3-dimethyl-1-phenylbutyl)-3-(4-(3-morpholinoazetidin-1-yl)phenyl)-1H-indazole-5-carboxamide] as the compound, how does the pIC50 (human TTK) read?
Answer: > 7.00

Question: With CC(C)C[C@H](NC(=O)c1ccc2[nH]nc(-c3ccc(N4CC(N5CCOCC5)C4)cc3)c2c1)c1ccccc1 [Example A521, (S)-N-(3-methyl-1-phenylbutyl)-3-(4-(3-morpholinoazetidin-1-yl)phenyl)-1H-indazole-5-carboxamide] as the compound, how does the pIC50 (human TTK) read?
Answer: > 7.00

Question: With CC(C)[C@H](NC(=O)c1ccc2[nH]nc(-c3ccc(N4CC(N5CCOCC5)C4)cc3)c2c1)c1ncccc1F [Example A522, (S)-N-(1-(3-fluoropyridin-2-yl)-2-methylpropyl)-3-(4-(3-morpholinoazetidin-1-yl)phenyl)-1H-indazole-5-carboxamide] as the compound, how does the pIC50 (human TTK) read?
Answer: > 7.00
